From PubChem BioAssay (NCI) come the findings set out here.

Some test systems named below: NCI-H522 lung; MDA-MB-435; SK-MEL-5 melanoma; SF-295 CNS; BT-549 breast; U251 CNS; UACC-257 melanoma; ACHN renal; CCRF-CEM leukemia; OVCAR-3 ovarian; 786-0 renal; IGROV1 ovarian; MDA-MB-231 breast; OVCAR-5 ovarian; MCF7 breast; K-562 leukemia; SF-539 CNS; M14 melanoma; OVCAR-4 ovarian; HOP-92 NSCLC.
What all share (experiment): NCI anticancer screen, dose series, 48 h

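In this assay, cells in 96-well plates receive the compound at five concentrations for 48 hours. Endpoints are linearly interpolated between the surrounding concentrations. The concentration for full growth arrest is given as TGI.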

Consider `CC(C)C(/C=C/c1ccc(Cl)cc1)=N\NC(=S)NN`, for which the TGI with NCI-H522 lung was 32.4 µM; in the experiment on MDA-MB-435 it was 85.2 µM; with SK-MEL-5 melanoma, above 100 µM; with SF-295 CNS, above 100 µM; in the experiment on BT-549 breast, above 100 µM; with U251 CNS it was above 100 µM. The TGI in the experiment on UACC-257 melanoma was 98.9 µM; in the experiment on ACHN renal, 65.6 µM; in the experiment on CCRF-CEM leukemia, 13.7 µM; in the experiment with OVCAR-3 ovarian, 78 µM; in the experiment on 786-0 renal, above 100 µM; in the experiment on IGROV1 ovarian it was above 100 µM. Besides, the TGI in the experiment with MDA-MB-231 breast was above 100 µM; in the experiment on OVCAR-5 ovarian, above 100 µM; with MCF7 breast, 52.5 µM; with K-562 leukemia it was above 100 µM; with SF-539 CNS, above 100 µM; in the experiment with M14 melanoma it was above 100 µM.
`CCCCC/C(=N\c1nc[nH]c1C(N)=O)OCC`: the TGI in the experiment with NCI-H522 lung, with MDA-MB-435, in the experiment on SK-MEL-5 melanoma, with SF-295 CNS, with BT-549 breast and in the experiment with U251 CNS was above 100 µM throughout. Besides, the TGI with UACC-257 melanoma, in the experiment on ACHN renal, with CCRF-CEM leukemia, with OVCAR-3 ovarian, in the experiment with 786-0 renal and in the experiment on IGROV1 ovarian was above 100 µM throughout. The TGI in the experiment with MDA-MB-231 breast, in the experiment on OVCAR-5 ovarian, in the experiment on OVCAR-4 ovarian, with MCF7 breast, in the experiment on K-562 leukemia and with SF-539 CNS was above 100 µM in each case. The molecule further had a TGI with M14 melanoma above 100 µM.
In the case of `COc1cc(C2SC(N)=Nc3c2c(C)nn3C(=O)Cc2ccccc2)ccc1O` (stereo not drawn), the TGI in the experiment with NCI-H522 lung, with MDA-MB-435, in the experiment with SK-MEL-5 melanoma, in the experiment with SF-295 CNS, in the experiment on BT-549 breast and in the experiment on UACC-257 melanoma was above 100 µM each time. Also, the TGI with ACHN renal, in the experiment with CCRF-CEM leukemia, in the experiment with 786-0 renal, with IGROV1 ovarian, in the experiment on MDA-MB-231 breast and in the experiment with MCF7 breast was above 100 µM throughout. Besides, the TGI in the experiment with K-562 leukemia, in the experiment with SF-539 CNS and in the experiment with M14 melanoma was above 100 µM in each case.
Consider `COc1ccc(C2Oc3c(cccc3OC)C=C2[N+](=O)[O-])cc1` (stereo not drawn), for which the TGI in the experiment with NCI-H522 lung is 3.02 µM; in the experiment with MDA-MB-435 it was 10.9 µM; in the experiment with SK-MEL-5 melanoma it was 2.93 µM; with SF-295 CNS it was 16.3 µM; in the experiment on BT-549 breast, 4.32 µM; with U251 CNS, 3.76 µM. The TGI was 19 µM with UACC-257 melanoma; 3.38 µM with ACHN renal; above 100 µM in the experiment with CCRF-CEM leukemia; 4.75 µM in the experiment with OVCAR-3 ovarian; 4.98 µM with 786-0 renal; 9.3 µM in the experiment with IGROV1 ovarian. The TGI in the experiment on MDA-MB-231 breast was found to be 13.6 µM; in the experiment on OVCAR-5 ovarian it was 6.48 µM; with OVCAR-4 ovarian it was 10.1 µM; in the experiment with MCF7 breast, 10.8 µM; in the experiment with K-562 leukemia, 16.3 µM; in the experiment on M14 melanoma it was 2.15 µM.
As for `CC1(C)OC([C@H](O)CO)C([C@H]2NCCS2)O1` (stereo partly drawn), the TGI in the experiment on NCI-H522 lung, with MDA-MB-435, in the experiment on SK-MEL-5 melanoma, with SF-295 CNS, in the experiment with BT-549 breast and in the experiment on U251 CNS was above 100 µM each time. The TGI in the experiment with UACC-257 melanoma, with ACHN renal, in the experiment on CCRF-CEM leukemia, in the experiment on HOP-92 NSCLC, in the experiment with OVCAR-3 ovarian and in the experiment with 786-0 renal was above 100 µM in each case. Moreover, the TGI with IGROV1 ovarian, in the experiment on MDA-MB-231 breast, in the experiment on OVCAR-5 ovarian, in the experiment with OVCAR-4 ovarian, with K-562 leukemia and with M14 melanoma was above 100 µM each time.
Regarding `CC1(CC(=O)OC(C#C[Si](C)(C)C)Cc2ccccc2)OCCO1` (stereo not drawn), the TGI in the experiment on NCI-H522 lung, in the experiment with MDA-MB-435, in the experiment with SK-MEL-5 melanoma, in the experiment on SF-295 CNS, in the experiment with BT-549 breast and with U251 CNS was above 100 µM in each case. Besides, the TGI with UACC-257 melanoma, with ACHN renal, in the experiment with CCRF-CEM leukemia, with 786-0 renal, with IGROV1 ovarian and with MDA-MB-231 breast was above 100 µM each time. Moreover, the TGI with OVCAR-5 ovarian, in the experiment on OVCAR-4 ovarian, with MCF7 breast, in the experiment on SF-539 CNS and with M14 melanoma was above 100 µM each time.
As to `O=C1CCC2(c3ccc(F)cc3)Nc3ncncc3N12` (stereo not drawn), the TGI in the experiment on NCI-H522 lung, in the experiment on MDA-MB-435, in the experiment on SF-295 CNS, in the experiment on BT-549 breast, in the experiment on U251 CNS and in the experiment with UACC-257 melanoma was above 10 µM each time. The TGI with ACHN renal, in the experiment with CCRF-CEM leukemia, with HOP-92 NSCLC, in the experiment with OVCAR-3 ovarian, in the experiment on 786-0 renal and in the experiment on IGROV1 ovarian was above 10 µM in each case. Besides, the TGI in the experiment with OVCAR-5 ovarian, in the experiment with OVCAR-4 ovarian, with MCF7 breast, with K-562 leukemia, with SF-539 CNS and in the experiment with M14 melanoma was above 10 µM in each case.
Turning to `Cc1ccc(C(=O)Nc2ccc(CP(=O)(O)O)cc2)cc1NC(=O)Nc1cc(C(=O)Nc2ccc(CP(=O)(O)O)cc2)ccc1C`, the TGI in the experiment with NCI-H522 lung, with MDA-MB-435, in the experiment with SK-MEL-5 melanoma, in the experiment on SF-295 CNS, in the experiment on BT-549 breast and in the experiment with U251 CNS was above 100 µM each time. For the same molecule, the TGI in the experiment with UACC-257 melanoma, in the experiment on CCRF-CEM leukemia, in the experiment on OVCAR-3 ovarian, with 786-0 renal, with IGROV1 ovarian and with MDA-MB-231 breast was above 100 µM in each case. Further, the TGI in the experiment with OVCAR-5 ovarian, in the experiment on OVCAR-4 ovarian, with MCF7 breast, in the experiment on SF-539 CNS and in the experiment on M14 melanoma was above 100 µM in each case.
Take `CN(C)C1COC2Cc3ccccc3C1O2` (stereo not drawn): the TGI in the experiment with NCI-H522 lung, with MDA-MB-435, with SK-MEL-5 melanoma, with SF-295 CNS, in the experiment on U251 CNS and in the experiment on UACC-257 melanoma was above 100 µM in each case. Moreover, the TGI in the experiment on ACHN renal, in the experiment with CCRF-CEM leukemia, with HOP-92 NSCLC, in the experiment on OVCAR-3 ovarian, in the experiment on 786-0 renal and in the experiment on IGROV1 ovarian was above 100 µM each time. In addition, the TGI in the experiment with MDA-MB-231 breast, in the experiment on OVCAR-5 ovarian, in the experiment with OVCAR-4 ovarian, in the experiment with MCF7 breast, with K-562 leukemia and with SF-539 CNS was above 100 µM each time. The molecule further returned a TGI with M14 melanoma above 100 µM.
With `Clc1ccc(N=Cc2cc3cc(Br)ccc3nc2Cl)cc1`, the TGI was above 50 µM in the experiment on NCI-H522 lung; above 50 µM in the experiment with MDA-MB-435; 45.2 µM in the experiment with SK-MEL-5 melanoma; above 50 µM in the experiment with BT-549 breast; above 50 µM with UACC-257 melanoma; 32.5 µM with CCRF-CEM leukemia. Moreover, the TGI in the experiment on HOP-92 NSCLC was above 50 µM; with 786-0 renal, above 50 µM; with IGROV1 ovarian it was above 50 µM; with OVCAR-5 ovarian, above 50 µM; in the experiment on OVCAR-4 ovarian, 24.2 µM; in the experiment with K-562 leukemia it was above 50 µM. In addition, the TGI in the experiment with SF-539 CNS and with M14 melanoma was above 50 µM each time.
For `O=C(NC1CCN(Cc2ccccc2)CC1)c1ccccc1I`, the TGI in the experiment with NCI-H522 lung was 27.6 µM; with MDA-MB-435, 32.4 µM; in the experiment on SK-MEL-5 melanoma, 31 µM; in the experiment with SF-295 CNS, 36.9 µM; in the experiment with BT-549 breast it was above 100 µM; with U251 CNS, 63.3 µM. Also, the TGI in the experiment on UACC-257 melanoma is 38 µM; with ACHN renal it was above 100 µM; in the experiment on CCRF-CEM leukemia, 86.2 µM; in the experiment with HOP-92 NSCLC it was 92.4 µM; in the experiment with OVCAR-3 ovarian, above 100 µM; in the experiment on 786-0 renal it was 63.4 µM. Also, the TGI is above 100 µM in the experiment on IGROV1 ovarian; 41.1 µM with MDA-MB-231 breast; 58 µM with OVCAR-5 ovarian; above 100 µM in the experiment with OVCAR-4 ovarian; above 100 µM with K-562 leukemia; 63.1 µM with SF-539 CNS. In the experiment with M14 melanoma, this molecule had a TGI of 33.4 µM.
As for `CN(C)N1C(=O)CC2(CCN(CCCC(=O)c3ccc(F)cc3)CC2)C1=O`, the TGI with NCI-H522 lung, in the experiment on MDA-MB-435, in the experiment on SK-MEL-5 melanoma, in the experiment on SF-295 CNS, with BT-549 breast and in the experiment on U251 CNS was above 100 µM in each case. For the same molecule, the TGI in the experiment on UACC-257 melanoma, in the experiment with ACHN renal, with OVCAR-3 ovarian, with 786-0 renal, with IGROV1 ovarian and with MDA-MB-231 breast was above 100 µM throughout. Further, the TGI with OVCAR-5 ovarian, with MCF7 breast, in the experiment with K-562 leukemia, in the experiment with SF-539 CNS and with M14 melanoma was above 100 µM in each case.
As for `COc1ccc(C2C3=C(CCCC3=O)N(c3ccccc3)C3=C2C(=O)CCC3)cc1`, the TGI in the experiment with BT-549 breast, in the experiment on U251 CNS, in the experiment on ACHN renal, in the experiment with CCRF-CEM leukemia, in the experiment on HOP-92 NSCLC and in the experiment on OVCAR-3 ovarian was above 100 µM throughout. In addition, the TGI with 786-0 renal, with IGROV1 ovarian, in the experiment with OVCAR-5 ovarian, in the experiment on OVCAR-4 ovarian, with MCF7 breast and with K-562 leukemia was above 100 µM throughout. Moreover, the TGI in the experiment on SF-539 CNS and in the experiment on M14 melanoma was above 100 µM in each case.
